Results taken from patent US10912741B2, “Prevention of liver cancer with safranal-based formulations” (United Arab Emirates University, priority 2019, dated 2021).

Legend:
[1] = test system: DNA fragmentation (TUNEL-positive cells); assay: TUNEL assay of liver sections (apoptosis); assay type: in vivo, albino Wistar rats
Experimental: The experimental hepatocarcinogenesis model was developed according to a protocol by Espandiaria et al. that was adapted for our purposes. To initiate and promote hepatocarcinogenesis, diethylnitrosamine (DEN) and 2-acetylaminofluorene (2-AAF) were used, respectively. For hepatocarcinogenesis initiation in this model, a single DEN dose (200 mg/kg b.wt.) dissolved in saline was injected intraperitoneally. After initiation, all rats underwent one period of 5-days fasting, as mitotic proliferative stimuli. To promote hepatocarcinogenesis, 2-acetylaminofluorene (2-AAF) was introduced in the form of six daily intragastric doses (30 mg/kg in 1% Tween 80); two weeks after DEN treatment.
Safranal at doses of 25 mg/kg by weight (b.wt.) and 50 mg/kg b.wt, was administrated orally to rats. These doses have been reported to suppress chemically-induced oxidative damage in rats. A total of 40 adult male albino Wistar rats were randomly divided into […] (n=8) and were subjected to different treatments. Group 1 (control) was orally administered distilled water (5 ml/kg b.wt.) throughout the experimental duration and were injected with a single dose of saline. […]
TUNEL assay was performed for the purpose of assessing apoptosis. […] DNA fragmentation, a key indicator of apoptosis, is detected using this kit. […]

[2] = test system: Malondialdehyde (MDA); assay: MDA level in liver homogenate, DEN/2-AAF hepatocarcinogenesis model; assay type: in vivo, albino Wistar rats; details: mean±SEM, 8 rats
Experimental: The experimental hepatocarcinogenesis model was developed according to a protocol by […] et al. that was adapted for our purposes. To initiate and promote hepatocarcinogenesis, diethylnitrosamine (DEN) and 2-acetylaminofluorene (2-AAF) were used, respectively. For hepatocarcinogenesis initiation in this model, a single DEN dose (200 mg/kg b.wt.) dissolved in saline was injected intraperitoneally. After initiation, all rats underwent one period of 5-days fasting, as mitotic proliferative stimuli. To promote hepatocarcinogenesis, 2-acetylaminofluorene (2-AAF) was introduced in the form of six daily intragastric doses (30 mg/kg in 1% Tween 80); two weeks after DEN treatment. […] at doses of 25 mg/kg by weight (b.wt.) and 50 mg/kg b.wt, was administrated orally to rats. These doses have been reported to suppress chemically-induced oxidative damage in rats. A total of 40 adult male albino Wistar rats were randomly divided into […] (n=8) and were subjected to different treatments. Group 1 (control) was orally administered distilled water (5 ml/kg b.wt.) throughout the experimental duration and were injected with a single dose of saline. Group 2 ([…] only) was subjected to a safranal dose (50 mg/kg b.wt.) through oral administration for the duration of the experimental period. Hepatocarcinogenesis was induced by DEN and promoted by 2-AAF, as reported previously, in group 3 (HCC). […] Glutathione (GSH) content was determined by analyzing liver homogenates, according to the method of Van Dooran et al. The assay depends on measuring yellow 5-thiol-2-nitrobenzoate absorbance at 412 nm. Glutathione-S-transferase (GST) activity was determined using the method of Habig et al. GST catalyzes the conjugation of GSH thiol group with 1-Chloro-2,4-dinitrobenzene (CDNB), which can be measured by determining the increase in absorbance at 340 nm. […] CAT decomposes hydrogen peroxide (H2O2) to oxygen and water; therefore, the activity of CAT was evaluated according to by the exponential decomposition of H2O2 at 240 nm. […] UV-160-Shimadzu recording spectrophotometer was used to record absorbances. […]

[3] = test system: human prostate cancer PC-3 cell lines; details: PC-3 cell line, reported in the background; cited from earlier work

CC1=C(C=O)C(C)(C)CC=C1 [Safranal, 2,6,6-trimethylcyclohexa-1,3-diene-1-carbaldehyde]
number of TUNEL-positive cells ([1]; low/high doses of safranal in animals exposed to DEN, compared to group 3): significant increase in the number of both TUNEL- and M30 CytoDeath-positive cells | number of TUNEL-positive cells ([1]; safranal only (group 2), compared to control group): did not exhibit a notable change | MDA ([2]; HCC (DEN/2-AAF) rats + safranal high dose 50 mg/kg b.wt. oral, 12 weeks): 0.63 ± 0.03 nmol/mg protein | MDA ([2]; HCC (DEN/2-AAF) rats + safranal low dose 25 mg/kg b.wt. oral, 12 weeks): 0.61 ± 0.02 nmol/mg protein | MDA ([2]; safranal alone 50 mg/kg b.wt. oral, no DEN (group 2)): 0.64 ± 0.02 nmol/mg protein | apoptosis [3]: induce apoptosis
